A short description of series [1]: in vivo. The settings on record: male, rat, po, 6 mg/kg.
Description: (§1) 16 healthy male rats weighing 200˜220 g were randomly divided into four groups. […] The plasma was separated, preserved for test under −20° C. The blood concentration was tested by HPLC-Tandem Mass Spectrum.
A short description of series [2]: Stability of compound A and its salts, content by HPLC. The settings on record: for Content by HPLC after storage: raw material purity 98.6%. The format is physicochemical. The procedure: (1) Content Determination Method
With a Octadecyl silane chemically bonded silica as bulking agent and 0.1% aqueous solution of ammonia-acetonitrile (65:35) as mobile phase, eluted in gradient mode at detection wavelength of 230 nm. Appropriate amount of test sample and reference solution was taken, then water was added to dissolve which to form solutions every 1 ml containing 0.2 mg of them respectively. The test sample solution and reference solution 10 μl was respectively taken and injected into the liquid chromatograph. chromatograph chart was recorded, and calculated by peak area according to the external standard method.
The stability of different types of the pharmaceutically acceptable salts of compound A under different conditions

Series [3] relates to genetic obese Wistar rats with diabetes. In words: Oral glucose tolerance test in genetic obese Wistar rats with diabetes. The format is in vivo, rat. The settings on record: for Plasma glucose: 30 mg/kg/day p.o. for 7 days, mean ± SD. The procedure: 13˜14 week-old male fat rats were divided into five groups, each group five. They were respectively administered the 6 salts of compound A (each 30 mg/kg/day, p.o.) for 7 days. After overnight fasting, oral glucose tolerance tests were conducted immidiately (2 g glucose/kg/5 ml, p.o.). Before and 120 and 240 mins after the glucose tolerance test, blood was collected from the tail vein, and plasma glucose was analyzed by enzymatic method (Encore Chemical System; Baker). Results were expressed as mean value of each group (n=5-6)±standard deviation analyzed by Dunnett's test which were shown in table 3.

Series [4] shares this test system. Nature of the series: Effects of the 6 salts in genetic obese Wistar rats with diabetes (14 days). The format is in vivo, rat. The note with it: for Hemoglobin (hemoglobin A1) / Plasma glucose: male Wistar fat rats, 10 mg/kg/day p.o. in feed, mean ± SD, n=5-6. The method, then:
14 to 19 week-old male Wistar fat rats were divided into five groups, each to group 5 to 6, and they were respectively administered the 6 salts of compound A (each 10 mg/kg weight/day, p.o.) which were mixed in commercial feed at a ratio of […] for 14 days. The blood was taken from tail vein, a commercial kits (NC-ROPET, Nippon Chemiphar CO.) was used to measure plasma glucose and hemoglobin A1 by enzymatic is method. The results were expressed as mean value of each group (n=5-6)±standard deviation and analyzed by Dunnett's test which were shown in table 2. A significance level of 1% was used.

Series [5] in a line: Absorption tests in rats of different salts (pharmacokinetics). The settings on record: rat, 6.0 mg/kg (by base) by gavage; for t1/2: 0.5% CMC-Na suspension.
Description: as §1
Setting [6] is: 0 min (before glucose load 2 g/kg p.o.).
Setting [7] is: 120 min after glucose load 2 g/kg p.o.
The mark [8] stands for this setting: 240 min after glucose load 2 g/kg p.o.

In general, AUC(0-inf) refers to the area under the concentration-time curve extrapolated to infinity. A word on the CL/F: it is the apparent clearance, not corrected for the fraction that reaches the circulation. The Cmax is the peak of the concentration-time curve. A word on the MRT: it is the average time that molecules of a dose stay in the body. The term Tmax denotes the time at which the peak concentration occurs. What is called half-life is how long it takes for the measured level to halve. Consider `COC(=O)c1nc(C(F)(F)F)n2c1CN(C(=O)C[C@H](N)Cc1cc(F)c(F)cc1F)CC2` [Compound A, (R)-7-[3-amino-4-(2,4,5-trifluoro-phenyl)-butyryl]-3-trifluoromethyl-5,6,7,8-tetrahydro-imidazo[1,5-a]pyrazine-1-carboxylic acid methyl ester], for which, in series [1], the AUC0-t worked out at 409 ng·h/mL, the AUC(0-inf) worked out at 425 ng·h/mL, the CL/F was 545 mL/min/kg and the Cmax was 242 ng/mL. In series [1], the mean residence time MRT was found to be 1.96 h, the Tmax turned out to be 0.5 h and the half-life was 1.54 h. Besides, the “Content by HPLC after storage” value in series [2] (40° C., 10 days) is on record as 95.2%. Also, the “Content by HPLC after storage” value in series [2] (60° C., 10 days) stood at 95.7%. Besides, the “Content by HPLC after storage” value in series [2] (Light, 10 days) is on record as 95.2%. The “Content by HPLC after storage” value in series [2] (RH60%, 25° C., nine months) was found to be 93.3%. The “Content by HPLC after storage” value in series [2] (RH75%, 40° C., six months) stood at 92.2%.
As to `COC(=O)c1nc(C(F)(F)F)n2c1CN(C(=O)C[C@H](N)Cc1cc(F)c(F)cc1F)CC2.Cl` [Hydrochloride of compound A, hydrochloride of (R)-7-[3-amino-4-(2,4,5-trifluoro-phenyl)-butyryl]-3-trifluoromethyl-5,6,7,8-tetrahydro-imidazo[1,5-a]pyrazine-1-carboxylic acid methyl ester], the Plasma glucose in series [3] (setting [6]) worked out at 109 ± 5 mg/dL. For the same compound, in series [3] (30 mg/kg/day p.o., 7 days), the “Effect on increase of blood sugar after the glucose tolerance test in words” value is “significantly inhibited the increase of blood sugar”. Further, the Plasma glucose in series [3] (setting [7]) stood at 116 ± 7 mg/dL. In series [3] (setting [8]), this compound returned a Plasma glucose of 106 ± 3 mg/dL. For the same compound, the “Effect on blood glucose and hemoglobin in words” value in series [4] (Wistar fat rats, 10 mg/kg/day) was “reduce the concentration of blood glucose and hemoglobin obviously”. In addition, in series [4], the “Hemoglobin (hemoglobin A1)” value is listed as 4.5 ± 0.5 and the Plasma glucose came to 165 ± 13. Moreover, in series [5], the AUC0-t amounted to 317 ng·h/mL, the “AUC0-∞” value turned out to be 319 ng·h/mL, the apparent clearance CL/F worked out at 348 mL/min/kg and the Cmax was 148 ng/mL. Besides, in series [5], the MRT is listed as 1.86 h, the Tmax came out at 0.63 h and the t1/2 is given as 1.07 h. Besides, in series [2] (40° C., 10 days), the “Content by HPLC after storage” value was 98.7%. Besides, the “Content by HPLC after storage” value in series [2] (60° C., 10 days) is 98.2%. For the same compound, the “Content by HPLC after storage” value in series [2] (Light, 10 days) turned out to be 98.1%. The “Content by HPLC after storage” value in series [2] (RH60%, 25° C., nine months) worked out at 97.5%. Further, the “Content by HPLC after storage” value in series [2] (RH75%, 40° C., six months) worked out at 97.7%. Moreover, the “Stability test result in words” value in series [2] (conclusion over all storage conditions) is “most satisfying”.
Regarding `COC(=O)c1nc(C(F)(F)F)n2c1CN(C(=O)CC(N)Cc1cc(F)c(F)cc1F)CC2.CS(=O)(=O)O` (stereo not shown) [Mesylate of compound A], the Plasma glucose amounted to 108 ± 8 mg/dL in series [3] (setting [6]), 115 ± 9 mg/dL in series [3] (setting [7]), 92 ± 7 mg/dL in series [3] (setting [8]) and 287 ± 34 in series [4]. Moreover, in series [4], the “Hemoglobin (hemoglobin A1)” value turned out to be 5.8 ± 0.4. Further, the AUC0-t in series [5] amounted to 274 ng·h/mL. In addition, the “AUC0-∞” value in series [5] is 275 ng·h/mL. The apparent clearance (CL/F) in series [5] was determined as 397 mL/min/kg. Moreover, the highest concentration (Cmax) in series [5] came out at 133 ng/mL. Besides, in series [5], the MRT is 1.61 h. Further, in series [5], the Tmax is given as 0.88 h. Moreover, the t1/2 in series [5] was found to be 0.87 h. Moreover, the “Content by HPLC after storage” value in series [2] (40° C., 10 days) was found to be 96.7%; in series [2] (60° C., 10 days) it was 96.5%; in series [2] (Light, 10 days) it was 97.6%; in series [2] (RH60%, 25° C., nine months) it was 95.6%; in series [2] (RH75%, 40° C., six months), 95.4%.

Values taken from patent US8618104B2, “Salts of methyl (R)-7-[3-amino-4-(2,4,5-trifluoro-phenyl)-butyryl]-3-trifluoromethyl-5,6,7,8-tetrahydro-imidazo[1,5-A]pyrazine-1-carboxylate” (Jiangsu Hengrui Medicine Co., Ltd., priority 2009, dated 2013).
